From US20250320224A1 (DOMAIN THERAPEUTICS, priority 2022, published 2025)
Structures can show the parent of a compound that is named as a salt.

Target: T1, human PAR-2 (hPAR-2) receptor (Homo sapiens, UniProt P55085)
T1 construct: expressed in HEK-293 cells in an endogenous manner; endogenous in cells; host or cells: HEK-293
T1 sequence (P55085 26-397): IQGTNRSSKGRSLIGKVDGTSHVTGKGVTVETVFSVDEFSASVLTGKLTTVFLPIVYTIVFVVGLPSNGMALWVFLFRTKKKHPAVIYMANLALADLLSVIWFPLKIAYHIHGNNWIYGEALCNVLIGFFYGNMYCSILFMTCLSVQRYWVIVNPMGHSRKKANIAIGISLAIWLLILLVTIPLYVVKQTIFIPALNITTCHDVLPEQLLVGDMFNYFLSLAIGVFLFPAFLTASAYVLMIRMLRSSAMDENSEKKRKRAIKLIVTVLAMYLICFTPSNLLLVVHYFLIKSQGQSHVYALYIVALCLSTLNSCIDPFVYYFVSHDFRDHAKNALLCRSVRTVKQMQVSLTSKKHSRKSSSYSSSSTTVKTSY
Assay: In vitro human PAR-2 functional antagonist activity using calcium assays
Assay type: cell-based
Conditions: hPAR-2 endogenously expressed in HEK-293 cells; stimulated by 2-Furoyl-LIGRLO-NH2 peptide; Fluo4AM intracellular calcium, FLIPR Tetra
Outline: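 HEK-293 cells with endogenous hPAR-2 were loaded with Fluo4AM and read for intracellular Ca2+ on FLIPR. After 10 min with compound alone, cells were stimulated with 2-Furoyl-LIGRLO-NH2 at the concentration giving 80% of maximal response. Inhibition was then recorded over 5 min relative to buffer and agonist-only signals.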

IC50 [nM] | SMILES
< 500 | Cc1nc(N2CCN(C(=O)c3ccc4c(n3)C(C)(C)CN4c3ccc(Cl)c(F)c3)C(C)(C)C2)sc1C(=O)O [Example 69, 2-(4-(1-(4-chloro-3-fluorophenyl)-3,3-dimethyl-2,3-dihydro-1H-pyrrolo[3,2-b]pyridine-5-carbonyl)-3,3-dimethylpiperazin-1-yl)-4-methylthiazole-5-carboxylic acid]
< 500 | Cc1nc(N2CCN(C(=O)c3ccc4c(n3)C(C)(C)CN4c3ccc(Cl)c(F)c3)C(C)(C)C2)sc1CC(=O)O [Example 71, 2-(2-(4-(1-(4-chloro-3-fluorophenyl)-3,3-dimethyl-2,3-dihydro-1H-pyrrolo[3,2-b]pyridine-5-carbonyl)-3,3-dimethylpiperazin-1-yl)-4-methylthiazol-5-yl)acetic acid]
< 500 | Cc1sc(N2CCN(C(=O)c3ccc4c(n3)C(C)(C)CN4c3ccc(Cl)c(F)c3)C(C)(C)C2)nc1C(=O)O [Example 73, 2-(4-(1-(4-chloro-3-fluorophenyl)-3,3-dimethyl-2,3-dihydro-1H-pyrrolo[3,2-b]pyridine-5-carbonyl)-3,3-dimethylpiperazin-1-yl)-5-methylthiazole-4-carboxylic acid hydrochloride]
< 500 | CC1(C)CN(c2ccc(Cl)c(F)c2)c2ccc(C(=O)N3CCN(c4nc(C(F)(F)F)c(C(=O)O)s4)CC3(C)C)nc21 [Example 79, 2-(4-(1-(4-chloro-3-fluorophenyl)-3,3-dimethyl-2,3-dihydro-1H-pyrrolo[3,2-b]pyridine-5-carbonyl)-3,3-dimethylpiperazin-1-yl)-4-(trifluoromethyl)thiazole-5-carboxylic acid]
< 500 | CN(C)C(=O)c1csc(N2CCN(C(=O)c3ccc4c(n3)C(C)(C)CN4c3ccc(Cl)c(F)c3)C(C)(C)C2)n1 [Example 80, 2-(4-(1-(4-chloro-3-fluorophenyl)-3,3-dimethyl-2,3-dihydro-1H-pyrrolo[3,2-b]pyridine-5-carbonyl)-3,3-dimethylpiperazin-1-yl)-N,N-dimethylthiazole-4-carboxamide]

The next lines start with the compound.

SMILES | IC50 [nM]
CC1(C)CN(c2ccc(Cl)c(F)c2)c2ccc(C(=O)N3CCNC(=O)CC3(C)C)nc21 [Example 74, 1-(1-(4-chloro-3-fluorophenyl)-3,3-dimethyl-2,3-dihydro-1H-pyrrolo[3,2-b]pyridine-5-carbonyl)-7,7-dimethyl-1,4-diazepan-5-one] | < 500
CC1(C)CN(c2ccc(Cl)c(F)c2)c2ccc(C(=O)N3CCC4(CCNC4=O)CC3)nc21 [Example 75, 8-(1-(4-chloro-3-fluorophenyl)-3,3-dimethyl-2,3-dihydro-1H-pyrrolo[3,2-b]pyridine-5-carbonyl)-2,8-diazaspiro[4.5]decan-1-one] | 500 to 10000
CC1(C)CN(c2ccc(Cl)c(F)c2)c2ccc(C(=O)N3CCC4(CC3)CNC(=O)C4)nc21 [Example 76, 8-(1-(4-chloro-3-fluorophenyl)-3,3-dimethyl-2,3-dihydro-1H-pyrrolo[3,2-b]pyridine-5-carbonyl)-2,8-diazaspiro[4.5]decan-3-one] | 500 to 10000
CC1(C)CN(c2ccc(Cl)c(F)c2)c2ccc(C(=O)N3CCC(N4CCNC4=O)CC3)nc21 [Example 77, 1-(1-(1-(4-chloro-3-fluorophenyl)-3,3-dimethyl-2,3-dihydro-1H-pyrrolo[3,2-b]pyridine-5-carbonyl)piperidin-4-yl)imidazolidin-2-one] | 500 to 10000
CC1(C)CN(c2ccc(Cl)c(F)c2)c2ccc(C(=O)N3CCN(c4nc(C(=O)N5CCC(O)CC5)cs4)CC3(C)C)nc21 [Example 81, (1-(4-chloro-3-fluorophenyl)-3,3-dimethyl-2,3-dihydro-1H-pyrrolo[3,2-b]pyridin-5-yl)(4-(4-(4-hydroxypiperidine-1-carbonyl)thiazol-2-yl)-2,2-dimethylpiperazin-1-yl)methanone] | < 500
